According to patent US20020137929A1, “1 - (3-heterocyclylphenyl) isothiourea, -isourea, -guanidine and -amidine herbicidal agents” (Intellectual Property Department, BASF Aktiengesellschaft, priority 1998, published 2002):

Key:
[1] = system: ECHORC (Watergrass (Calif.)); assay: Preemergence weed control under flooded paddy conditions; type: in vivo, Echinochloa oryzoides; details: rated 3-4 weeks after treatment
Summary of the method: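 Herbicidal effect is scored visually on a 0-9 scale against an untreated control, three to four weeks after compounds are pipetted into the flood water (1.5 to 3 cm deep) over seeds planted in silt loam at 0.5 cm depth. Rates: about 0.0313 to 0.500 kg/ha.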

[2] = system: IPOHE (Morningglory, Ivyleaf); assay: Postemergence herbicidal evaluation; type: in vivo, Ipomoea hederacea; details: for IPOHE herbicidal rating: postemergence
Summary of the method: (§1)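 First, seedlings were raised for around two weeks. Next, test material in 50/50 acetone/water containing 0.5% TWEEN 20 was sprayed through a nozzle at 40 psi, equivalent to about 0.0156–0.500 kg/ha. Finally, after 4–5 weeks in the greenhouse, plants were rated 0–9.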

ORYSAT (Rice, Tebonnet) = assay: Preemergence herbicidal evaluation; type: in vivo, Oryza sativa, (L.) Tebonnet; details: rated 4-5 weeks after treatment; for ORYSAT rating: preemergence, 0-9 scale
Summary of the method: (§2)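 Sown cups got a single aqueous acetone spray of test compound (roughly 0.0156–0.500 kg/ha) before seedlings emerged. Evaluation, 4–5 weeks on, used a 0–9 visual scale covering plant stand, vigor, size, malformation, chlorosis and general appearance compared with controls.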

[3] = system: TRZAWR (Wheat, Winter, cv Riband); assay: Preemergence herbicidal evaluation; type: in vivo, Triticum aestivum; details: rated 4-5 weeks after treatment; for TRZAWR rating: preemergence, 0-9 scale
Summary of the method: as §2

MOOVA (Monochoria) = assay: Preemergence weed control under flooded paddy conditions; type: in vivo, Monochoria vaginalis; details: rated 3-4 weeks after treatment
Summary of the method: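 Using flooded silt loam (water 1.5 to 3 cm deep), seeds sown in the top 0.5 cm were exposed preemergence to compound pipetted into the flood at about 0.0313 to 0.500 kg/ha. Effects were scored 0-9 by eye three to four weeks later.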

ECHCG (Barnyardgrass) = assay: Preemergence herbicidal evaluation; type: in vivo, Echinochloa crus-galli; details: rated 4-5 weeks after treatment; for ECHCG rating: preemergence, 0-9 scale
Summary of the method: as §2

[4] = system: ECHORC (Watergrass (Calif.)); assay: Postemergence weed control under flooded paddy conditions; type: in vivo, Echinochloa oryzoides; details: postemergence weeds, rated 3 to 4 weeks after treatment
Summary of the method: (§3)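 Injury ratings (0–9 scale covering stand, vigor, malformation, size, chlorosis and overall appearance versus control) were made three to four weeks after treatment. Test material, about 0.0313 to 0.500 kg/ha a.i. in 50/50 v/v aqueous/acetone, was added to flood water 1.5 to 3 cm deep over 3 to 5 cm weeds and 1.5 to 2.5 leaf rice.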

[5] = system: CHEAL (Lambsquarters, Common); assay: Preemergence herbicidal evaluation; type: in vivo, Chenopodium album; details: rated 4-5 weeks after treatment; for CHEAL rating: preemergence, 0-9 scale
Summary of the method: as §2

[6] = system: IPOHE (Morningglory, Ivyleaf); assay: Preemergence herbicidal evaluation; type: in vivo, Ipomoea hederacea; details: rated 4-5 weeks after treatment; for IPOHE rating: preemergence, 0-9 scale
Summary of the method: as §2

CYPIR (Rice Flatsedge) = assay: Postemergence weed control under flooded paddy conditions; type: in vivo, Cyperus iria; details: postemergence weeds, rated 3 to 4 weeks after treatment
Summary of the method: as §3

[7] = system: TRZAWR (Wheat, Winter, cv Riband); assay: Postemergence herbicidal evaluation; type: in vivo, Triticum aestivum; details: for TRZAWR herbicidal rating: postemergence
Summary of the method: as §1

ABUTH (Velvetleaf) = assay: Postemergence herbicidal evaluation; type: in vivo, Abutilon theophrasti; details: for ABUTH herbicidal rating: postemergence
Summary of the method: as §1

SETVI (Foxtail, Green) = assay: Preemergence herbicidal evaluation; type: in vivo, Setaria viridis; details: rated 4-5 weeks after treatment; for SETVI rating: preemergence, 0-9 scale
Summary of the method: as §2

C=CCN1C(=O)C(CC(=O)OC(C)C(=O)OCC)SC1=Nc1cc(-n2c(=O)ccn(C)c2=O)c(F)cc1Cl [Compound 94, 3-Allyl-2-{{2-chloro-5-[3,6-dihydro-3-methyl-2,6-dioxo-1(2H)-pyrimidinyl]-4-fluorophenyl}imino}-4-oxo-5-thiazolidineacetic acid, ester with ethyl lactate, (R,S)-]
ECHORC herbicidal effect rating ([1]; 0.0313 kg/ha): 0.0 | ECHORC herbicidal effect rating ([1]; 0.0625 kg/ha): 0.0 | ECHORC herbicidal effect rating ([1]; 0.1250 kg/ha): 2.0 | ECHORC herbicidal effect rating ([1]; 0.2500 kg/ha): 7.0 | IPOHE herbicidal rating ([2]; rate 0.0158 kg/ha): 9.0 | IPOHE herbicidal rating ([2]; rate 0.0315 kg/ha): 9.0 | IPOHE herbicidal rating ([2]; rate 0.0630 kg/ha): 9.0 | ORYSAT rating (ORYSAT (Rice, Tebonnet); 0.0156 kg/ha): 0.0 | ORYSAT rating (ORYSAT (Rice, Tebonnet); 0.0313 kg/ha): 0.0 | ORYSAT rating (ORYSAT (Rice, Tebonnet); 0.0625 kg/ha): 0.0 | ORYSAT rating (ORYSAT (Rice, Tebonnet); 0.1250 kg/ha): 0.0 | ORYSAT rating (ORYSAT (Rice, Tebonnet); 0.2500 kg/ha): 3.0 | TRZAWR rating ([3]; 0.0156 kg/ha): 0.0 | TRZAWR rating ([3]; 0.0313 kg/ha): 0.0 | TRZAWR rating ([3]; 0.0625 kg/ha): 0.0 | TRZAWR rating ([3]; 0.1250 kg/ha): 0.0 | TRZAWR rating ([3]; 0.2500 kg/ha): 0.0 | MOOVA herbicidal effect rating (MOOVA (Monochoria); 0.0313 kg/ha): 9.0 | MOOVA herbicidal effect rating (MOOVA (Monochoria); 0.0625 kg/ha): 9.0 | MOOVA herbicidal effect rating (MOOVA (Monochoria); 0.1250 kg/ha): 9.0 | MOOVA herbicidal effect rating (MOOVA (Monochoria); 0.2500 kg/ha): 9.0 | ECHCG rating (ECHCG (Barnyardgrass); 0.0156 kg/ha): 0.0 | ECHCG rating (ECHCG (Barnyardgrass); 0.0313 kg/ha): 0.0 | ECHCG rating (ECHCG (Barnyardgrass); 0.0625 kg/ha): 0.0 | ECHCG rating (ECHCG (Barnyardgrass); 0.1250 kg/ha): 0.0 | ECHCG rating (ECHCG (Barnyardgrass); 0.2500 kg/ha): 0.0 | Herbicidal rating ECHORC ([4]; Rate 0.0313 kg/ha): 0.0 | Herbicidal rating ECHORC ([4]; Rate 0.0625 kg/ha): 0.0 | Herbicidal rating ECHORC ([4]; Rate 0.1250 kg/ha): 2.0 | Herbicidal rating ECHORC ([4]; Rate 0.2500 kg/ha): 7.0 | CHEAL rating ([5]; 0.0156 kg/ha): 9.0 | CHEAL rating ([5]; 0.0313 kg/ha): 9.0 | CHEAL rating ([5]; 0.0625 kg/ha): 9.0 | CHEAL rating ([5]; 0.1250 kg/ha): 9.0 | CHEAL rating ([5]; 0.2500 kg/ha): 9.0 | IPOHE rating ([6]; 0.0156 kg/ha): 0.0 | IPOHE rating ([6]; 0.0313 kg/ha): 0.0 | IPOHE rating ([6]; 0.0625 kg/ha): 0.0 | IPOHE rating ([6]; 0.1250 kg/ha): 9.0 | IPOHE rating ([6]; 0.2500 kg/ha): 9.0 | Herbicidal rating CYPIR (CYPIR (Rice Flatsedge); Rate 0.0313 kg/ha): 0.0 | Herbicidal rating CYPIR (CYPIR (Rice Flatsedge); Rate 0.0625 kg/ha): 3.0 | Herbicidal rating CYPIR (CYPIR (Rice Flatsedge); Rate 0.1250 kg/ha): 4.0 | Herbicidal rating CYPIR (CYPIR (Rice Flatsedge); Rate 0.2500 kg/ha): 4.0 | TRZAWR herbicidal rating ([7]; rate 0.0158 kg/ha): 6.0 | TRZAWR herbicidal rating ([7]; rate 0.0315 kg/ha): 9.0 | TRZAWR herbicidal rating ([7]; rate 0.0630 kg/ha): 8.0 | ABUTH herbicidal rating (ABUTH (Velvetleaf); rate 0.0158 kg/ha): 9.0 | ABUTH herbicidal rating (ABUTH (Velvetleaf); rate 0.0315 kg/ha): 9.0 | ABUTH herbicidal rating (ABUTH (Velvetleaf); rate 0.0630 kg/ha): 9.0 | SETVI rating (SETVI (Foxtail, Green); 0.0156 kg/ha): 0.0 | SETVI rating (SETVI (Foxtail, Green); 0.0313 kg/ha): 0.0 | SETVI rating (SETVI (Foxtail, Green); 0.0625 kg/ha): 0.0 | SETVI rating (SETVI (Foxtail, Green); 0.1250 kg/ha): 4.0 | SETVI rating (SETVI (Foxtail, Green); 0.2500 kg/ha): 9.0

C=CCN1C(=O)C(CC(=O)O)SC1=Nc1cc(-n2c(=O)cc(C(F)(F)F)n(C)c2=O)c(F)cc1Cl (stereo not shown) [Compound 62, 3-Allyl-2-{{2-chloro-5-[3,6-dihydro-3-methyl-2,6-dioxo-4-(trifluoromethyl)-1(2H)-pyrimidinyl]-4-fluorophenyl}imino}-4-oxo-5-thiazolidineacetic acid]
ECHORC herbicidal effect rating ([1]; 0.0313 kg/ha): 0.0 | ECHORC herbicidal effect rating ([1]; 0.0625 kg/ha): 0.0 | ECHORC herbicidal effect rating ([1]; 0.1250 kg/ha): 2.0 | ECHORC herbicidal effect rating ([1]; 0.2500 kg/ha): 5.0 | Postemergence herbicidal rating IPOHE ([2]; Rate 0.0158 kg/ha): 9.0 | Postemergence herbicidal rating IPOHE ([2]; Rate 0.0315 kg/ha): 9.0 | Postemergence herbicidal rating IPOHE ([2]; Rate 0.0630 kg/ha): 9.0 | Preemergence herbicidal rating ORYSAT (ORYSAT (Rice, Tebonnet); rate 0.0156 kg/ha): 0.0 | Preemergence herbicidal rating ORYSAT (ORYSAT (Rice, Tebonnet); rate 0.0313 kg/ha): 0.0 | Preemergence herbicidal rating ORYSAT (ORYSAT (Rice, Tebonnet); rate 0.0625 kg/ha): 1.0 | Preemergence herbicidal rating ORYSAT (ORYSAT (Rice, Tebonnet); rate 0.1250 kg/ha): 4.0 | Preemergence herbicidal rating ORYSAT (ORYSAT (Rice, Tebonnet); rate 0.2500 kg/ha): 6.0 | Preemergence herbicidal rating TRZAWR ([3]; rate 0.0156 kg/ha): 0.0 | Preemergence herbicidal rating TRZAWR ([3]; rate 0.0625 kg/ha): 1.0 | Preemergence herbicidal rating TRZAWR ([3]; rate 0.1250 kg/ha): 1.0 | Preemergence herbicidal rating TRZAWR ([3]; rate 0.2500 kg/ha): 2.0 | MOOVA herbicidal effect rating (MOOVA (Monochoria); 0.0313 kg/ha): 4.0 | MOOVA herbicidal effect rating (MOOVA (Monochoria); 0.0625 kg/ha): 9.0 | MOOVA herbicidal effect rating (MOOVA (Monochoria); 0.1250 kg/ha): 9.0 | MOOVA herbicidal effect rating (MOOVA (Monochoria); 0.2500 kg/ha): 9.0 | Preemergence herbicidal rating ECHCG (ECHCG (Barnyardgrass); rate 0.0156 kg/ha): 0.0 | Preemergence herbicidal rating ECHCG (ECHCG (Barnyardgrass); rate 0.0313 kg/ha): 0.0 | Preemergence herbicidal rating ECHCG (ECHCG (Barnyardgrass); rate 0.0625 kg/ha): 1.0 | Preemergence herbicidal rating ECHCG (ECHCG (Barnyardgrass); rate 0.1250 kg/ha): 3.0 | Preemergence herbicidal rating ECHCG (ECHCG (Barnyardgrass); rate 0.2500 kg/ha): 7.0 | Herbicidal rating ECHORC ([4]; Rate 0.0313 kg/ha): 0.0 | Herbicidal rating ECHORC ([4]; Rate 0.0625 kg/ha): 0.0 | Herbicidal rating ECHORC ([4]; Rate 0.1250 kg/ha): 2.0 | Herbicidal rating ECHORC ([4]; Rate 0.2500 kg/ha): 5.0 | Preemergence herbicidal rating CHEAL ([5]; rate 0.0156 kg/ha): 7.0 | Preemergence herbicidal rating CHEAL ([5]; rate 0.0313 kg/ha): 9.0 | Preemergence herbicidal rating CHEAL ([5]; rate 0.0625 kg/ha): 9.0 | Preemergence herbicidal rating CHEAL ([5]; rate 0.1250 kg/ha): 9.0 | Preemergence herbicidal rating CHEAL ([5]; rate 0.2500 kg/ha): 9.0 | Preemergence herbicidal rating IPOHE ([6]; rate 0.0156 kg/ha): 0.0 | Preemergence herbicidal rating IPOHE ([6]; rate 0.0313 kg/ha): 3.0 | Preemergence herbicidal rating IPOHE ([6]; rate 0.0625 kg/ha): 5.0 | Preemergence herbicidal rating IPOHE ([6]; rate 0.1250 kg/ha): 7.0 | Preemergence herbicidal rating IPOHE ([6]; rate 0.2500 kg/ha): 9.0 | Herbicidal rating CYPIR (CYPIR (Rice Flatsedge); Rate 0.0313 kg/ha): 0.0 | Herbicidal rating CYPIR (CYPIR (Rice Flatsedge); Rate 0.0625 kg/ha): 2.0 | Herbicidal rating CYPIR (CYPIR (Rice Flatsedge); Rate 0.1250 kg/ha): 9.0 | Herbicidal rating CYPIR (CYPIR (Rice Flatsedge); Rate 0.2500 kg/ha): 9.0 | Postemergence herbicidal rating TRZAWR ([7]; Rate 0.0158 kg/ha): 5.0 | Postemergence herbicidal rating TRZAWR ([7]; Rate 0.0315 kg/ha): 5.5 | Postemergence herbicidal rating TRZAWR ([7]; Rate 0.0630 kg/ha): 7.0 | Postemergence herbicidal rating ABUTH (ABUTH (Velvetleaf); Rate 0.0158 kg/ha): 9.0 | Postemergence herbicidal rating ABUTH (ABUTH (Velvetleaf); Rate 0.0315 kg/ha): 9.0 | Postemergence herbicidal rating ABUTH (ABUTH (Velvetleaf); Rate 0.0630 kg/ha): 9.0 | Preemergence herbicidal rating SETVI (SETVI (Foxtail, Green); rate 0.0156 kg/ha): 0.0 | Preemergence herbicidal rating SETVI (SETVI (Foxtail, Green); rate 0.0313 kg/ha): 0.0 | Preemergence herbicidal rating SETVI (SETVI (Foxtail, Green); rate 0.0625 kg/ha): 6.0 | Preemergence herbicidal rating SETVI (SETVI (Foxtail, Green); rate 0.1250 kg/ha): 9.0 | Preemergence herbicidal rating SETVI (SETVI (Foxtail, Green); rate 0.2500 kg/ha): 9.0
